From the supplement of paper PMC10627819

Key:
S. aureus Newman = experiment: fitness (endpoint OD595 vs no drug) (fraction); higher = more growth
Procedure, shortened: (§1)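 Fitness was measured as bacterial growth in 384-well plates inoculated at OD595 0.01 (30 µl, or 55 µl for S. pneumoniae). Media were TSB, LB Lennox or CY, at 37 °C. OD595 was read every 30 min for 14 h and background-subtracted against the first reading. Fitness is OD595 at the transition into stationary phase divided by the robust mean of no-drug control wells, capped at 1.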

S. pneumoniae D39V = experiment: as above
Procedure, shortened: as §1
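Note: OD595 on entry to stationary phase over no-drug wells; at most 1.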

O=C(O)c1cn(C2CC2)c2cc(N3CCNCC3)c(F)cc2c1=O [Ciprofloxacin] + CO[C@@]12[C@H](COC(N)=O)C3=C(C(=O)C(C)=C(N)C3=O)N1C[C@@H]1N[C@@H]12 [Mitomycin C]
Settings	fitness
S. aureus Newman, first compound 0.0375 µg/mL, partner 0.0156 µg/mL	0.609
S. aureus Newman, first compound 0.0375 µg/mL, partner 0.0312 µg/mL	0.557
S. aureus Newman, first compound 0.0375 µg/mL, partner 0.0625 µg/mL	0.366
S. aureus Newman, first compound 0.075 µg/mL, partner 0.0156 µg/mL	0.573
S. aureus Newman, first compound 0.075 µg/mL, partner 0.0312 µg/mL	0.497
S. aureus Newman, first compound 0.075 µg/mL, partner 0.0625 µg/mL	0.219
S. aureus Newman, first compound 0.15 µg/mL, partner 0.0156 µg/mL	0.152
S. aureus Newman, first compound 0.15 µg/mL, partner 0.0312 µg/mL	0.0809
S. aureus Newman, first compound 0.15 µg/mL, partner 0.0625 µg/mL	0.0294
S. pneumoniae D39V, first compound 0.125 µg/mL, partner 0.001075 µg/mL	0.917
S. pneumoniae D39V, first compound 0.125 µg/mL, partner 0.002 µg/mL	0.75
S. pneumoniae D39V, first compound 0.125 µg/mL, partner 0.00215 µg/mL	0.892
S. pneumoniae D39V, first compound 0.125 µg/mL, partner 0.004 µg/mL	0.632
S. pneumoniae D39V, first compound 0.125 µg/mL, partner 0.0043 µg/mL	0.766
S. pneumoniae D39V, first compound 0.125 µg/mL, partner 0.008 µg/mL	0.322
S. pneumoniae D39V, first compound 0.25 µg/mL, partner 0.001075 µg/mL	0.861
S. pneumoniae D39V, first compound 0.25 µg/mL, partner 0.00215 µg/mL	0.822
S. pneumoniae D39V, first compound 0.25 µg/mL, partner 0.0043 µg/mL	0.736
S. pneumoniae D39V, first compound 0.5 µg/mL, partner 0.001075 µg/mL	0.658
S. pneumoniae D39V, first compound 0.5 µg/mL, partner 0.00215 µg/mL	0.643
S. pneumoniae D39V, first compound 0.5 µg/mL, partner 0.0043 µg/mL	0.523
S. pneumoniae D39V, first compound 0.5 µg/mL, partner 0.008 µg/mL	0.188

S. pneumoniae D39V, first compound 0.25 µg/mL, one replicate
Settings	fitness
partner 0.002 µg/mL	0.541
partner 0.004 µg/mL	0.394
partner 0.008 µg/mL	0.154

C[C@@H]1O[C@@H]1P(=O)(O)O [Fosfomycin] + CC1(C)S[C@@H]2[C@H](NC(=O)Cc3ccccc3)C(=O)N2[C@H]1C(=O)O [Penicillin G]
fitness, S. aureus Newman
Settings	first compound 0.781 µg/mL	first compound 1.562 µg/mL	first compound 3.124 µg/mL
partner 0.0195 µg/mL	0.582	0.498	0.167
partner 0.039 µg/mL	0.583	0.516	0.171
partner 0.078 µg/mL	0.54	0.508	0.153

CC1(C)S[C@@H]2[C@H](NC(=O)Cc3ccccc3)C(=O)N2[C@H]1C(=O)O [Penicillin G] + CN(C)c1cc(NC(=O)CNC(C)(C)C)c(O)c2c1C[C@H]1C[C@H]3[C@H](N(C)C)C(O)=C(C(N)=O)C(=O)[C@@]3(O)C(O)=C1C2=O [Tigecycline]
fitness, S. aureus Newman
Settings	first compound 0.0195 µg/mL	first compound 0.039 µg/mL	first compound 0.078 µg/mL
partner 0.039 µg/mL	0.879	0.879	0.864
partner 0.078 µg/mL	0.898	0.919	0.913
partner 0.156 µg/mL	0.904	0.924	0.913

CC1(C)S[C@@H]2[C@H](NC(=O)Cc3ccccc3)C(=O)N2[C@H]1C(=O)O [Penicillin G] + CCCCCCCCCC(=O)N[C@@H]1[C@H]([C@@H]([C@H](O[C@H]1OC2=C3C=C4C=C2OC5=C(C=C(C=C5)[C@H]([C@H]6C(=O)N[C@@H](C7=C(C(=CC(=C7)O)OC8[C@H]([C@H]([C@@H]([C@H](O8)CO)O)O)O)C9=C(C=CC(=C9)[C@H](C(=O)N6)NC(=O)[C@@H]4NC(=O)[C@@H]1C2=CC(=CC(=C2)OC2=C(C=CC(=C2)[C@H](C(=O)N[C@H](CC2=CC(=C(O3)C=C2)Cl)C(=O)N1)N)O)O)O)C(=O)O)O[C@H]1[C@@H]([C@H]([C@@H]([C@H](O1)CO)O)O)NC(=O)C)Cl)CO)O)O [Teicoplanin]
fitness, S. aureus Newman, main component drawn
Settings	first compound 0.0195 µg/mL	first compound 0.039 µg/mL	first compound 0.078 µg/mL
partner 0.1562 µg/mL	0.983	≥ 1	≥ 1
partner 0.3125 µg/mL	0.955	0.924	0.921
partner 0.625 µg/mL	0.803	0.824	0.776

fitness, S. aureus Newman, one replicate, main component drawn
Settings	first compound 0.0195 µg/mL	first compound 0.039 µg/mL	first compound 0.078 µg/mL
partner 0.62 µg/mL	0.697	0.741	0.715
partner 1.24 µg/mL	0.702	0.732	0.711
partner 2.48 µg/mL	0.377	0.393	0.284

CC1(C)S[C@@H]2[C@H](NC(=O)Cc3ccccc3)C(=O)N2[C@H]1C(=O)O [Penicillin G] + Cc1cc(NS(=O)(=O)c2ccc(N)cc2)no1 [Sulfamethoxazol]
fitness, S. aureus Newman
Settings	first compound 0.0195 µg/mL	first compound 0.039 µg/mL	first compound 0.078 µg/mL
partner 1 µg/mL	0.929	0.912	0.888
partner 2 µg/mL	0.957	–	0.879

S. aureus Newman, partner 8 µg/mL, one replicate
Settings	fitness
first compound 0.0195 µg/mL	0.859
first compound 0.039 µg/mL	0.87
first compound 0.078 µg/mL	0.882

CO/N=C(\C(=O)N[C@@H]1C(=O)N2C(C(=O)O)=C(COC(N)=O)CS[C@H]12)c1ccco1 [Cefuroxime] + CO/N=C(\C(=O)N[C@@H]1C(=O)N2C(C(=O)[O-])=C(C[N+]3(C)CCCC3)CS[C@H]12)c1csc(N)n1 [Cefepime]
fitness, S. aureus Newman, one replicate
Settings	first compound 0.04875 µg/mL	first compound 0.0975 µg/mL	first compound 0.195 µg/mL
partner 0.125 µg/mL	0.984	0.841	0.925
partner 0.25 µg/mL	0.871	0.821	0.922
partner 0.5 µg/mL	0.88	0.731	0.864

CC1(C)S[C@@H]2[C@H](NC(=O)Cc3ccccc3)C(=O)N2[C@H]1C(=O)O [Penicillin G] + CN[C@@H]1[C@H](O)[C@H](NC)[C@H]2O[C@@]3(O)C(=O)C[C@@H](C)O[C@H]3O[C@@H]2[C@H]1O [Spectinomycin]
fitness, S. aureus Newman
Settings	first compound 0.0195 µg/mL	first compound 0.039 µg/mL	first compound 0.078 µg/mL
partner 4 µg/mL	0.857	0.848	0.817
partner 8 µg/mL	0.852	0.857	0.828
partner 16 µg/mL	0.844	0.806	0.802

fitness, S. aureus Newman, one replicate
Settings	first compound 0.0195 µg/mL	first compound 0.039 µg/mL	first compound 0.078 µg/mL
partner 32 µg/mL	0.462	0.35	0.272
partner 64 µg/mL	0.0086	0.0192	0.0551
